Like-named read-outs stand apart in the source and are kept apart here.
What was measured:
[1] = Experimental: The ability of compound I to absorb bile acids was measured at pH 7 and pH 4 (the analytical method was based on the reaction between sulphuric acid, furfural and cholic acid; Pettenkofer, Ann. Chem. Pharm. 52, 90, 1884). The product was suspended in the appropriate buffer and a solution of the bile acid or ox bile was added, samples being taken at intervals of time.
[2] = system: ulcers; assay: 18 hour pyloric ligature: incidence of ulcers; format: in vivo; details: rats, 18 hours ligature
[3] = system: pepsin; details: rats, 4 hour ligature; for reduction of pepsin enzyme activity of gastric juice: at the higher doses
Text: (§1) In a further series of experiments the detergent action of bile was used to sensitize the rat stomach to the ulcerogenic action of indomethacin.

[4] = 4 hour pyloric ligature of the stomach: pH and total acid content of stomach contents; details: rats, 31.25-500 mg/kg orally 1 hour before sacrifice
Text: as §1

[5] = pH stat, pH 4, suspension in water
[6] = system: gastric acid secretion; details: human volunteers, pentagastrin 6 μg/kg i.m., 1 g suspension 30 minutes later, versus aluminium hydroxide gel
Experimental: Gastric acid secretion was induced by injection of pentagastrin (6 μg/kg i.m.). Thirty minutes later a suspension of 1 g of compound I or aluminium hydroxide was given (2 groups of 6 volunteers, double blind parallel). Samples of gastric juice were taken before giving pentagastrin (basal level), 30 minutes after injection of pentagastrin and at intervals of 30, 60, 90 and 120 minutes after giving the antacids. In each case the pH, free acid content and pepsin content were measured.

[7] = system: ulcers; assay: bile-sensitized stomach, ulcerogenic action of indomethacin; details: rat stomach sensitized with bile, 31.25-125 mg/kg orally
Text: as §1

[8] = antacid activity in simulated gastric juice (modified Holbert technique, automatic titrator); format: physicochemical; details: for Vol. of gastric juice added: added at 0.7 ml/min. until pH fell below 3; for pH of suspension after 1 min.: about 0.125 g powder in 20 ml, 37° C.
Experimental: Approximately 0.125 g of powder was added to 20 ml of simulated gastric juice (U.S.P.) and stirred vigorously at 37° C. The pH was registered at 1, 5 and 10 minutes and then the automatic burette was started and synthetic gastric juice was added at a rate of 0.7 ml/min. until the pH fell below 3. The time taken and the amount of gastric juice added to reach pH 3 was observed.

[9] = gastric juice DP, double quantity of pepsin
[10] = gastric juice DP, with double quantity of pepsin
[11] = gastric juice N, normal U.S.P. simulated gastric juice
[12] = gastric juice SP, without pepsin

Compound | reduction of pepsin enzyme activity of gastric juice [3] | effect on pH of the stomach contents [4] | reduction of total acid content [4] | reduction of the incidence of ulcers (inhibition) [7] | Vol. of gastric juice added [8, 9] [mL] | pH of suspension after 1 min. [8, 10] | pH of suspension after 1 min. [8, 11] | Vol. of gastric juice added ([8]; gastric juice N, normal U.S.P.) [mL] | pH of suspension after 1 min. [8, 12] | Vol. of gastric juice added [8, 12] [mL] | also measured
basic aluminium magnesium carbonate [compound I] | 78.9% | dose dependent increases in the pH of the stomach contents | up to 85% | up to 54% | 22.36 | 4.55 | 4.25 | 21.2 | 4.00 | 10.9 | Percentage absorption of bile acids ([1]; Cholic Acid, Buffer pH 4, 1 hr): 80.5 Percentage; Percentage absorption of bile acids ([1]; Cholic Acid, Buffer pH 4, 3 hr): 86.3 Percentage; Percentage absorption of bile acids ([1]; Cholic Acid, Buffer pH 7, 1 hr): 0 Percentage; Percentage absorption of bile acids ([1]; Cholic Acid, Buffer pH 7, 3 hr): 12 Percentage; Percentage absorption of bile acids ([1]; Ox bile, Buffer pH 4, 1 hr): 69.0 Percentage; Percentage absorption of bile acids ([1]; Ox bile, Buffer pH 4, 3 hr): 70.0 Percentage; Percentage absorption of bile acids ([1]; Ox bile, Buffer pH 7, 1 hr): 17.3 Percentage; Percentage absorption of bile acids ([1]; Ox bile, Buffer pH 7, 3 hr): 25.8 Percentage; Percentage absorption of bile acids ([1]; Taurocholic acid, Buffer pH 4, 1 hr): 65.4 Percentage; Percentage absorption of bile acids ([1]; Taurocholic acid, Buffer pH 4, 3 hr): 71.7 Percentage; Percentage absorption of bile acids ([1]; Taurocholic acid, Buffer pH 7, 1 hr): 0.6 Percentage; Percentage absorption of bile acids ([1]; Taurocholic acid, Buffer pH 7, 3 hr): 20.8 Percentage; reduction in the incidence of ulcers compared with placebo treated controls ([2]; 31.25 mg/kg orally at the same time as the operation): 58%; reduction of pepsin enzyme activity, pH of the gastric juice readjusted to 2 ([3]; higher doses, pH readjusted to 2 (optimal for pepsin activity)): 32.5%; acid-binding capacity [5]: higher at pH 4 than any of the other substances; antipepsin effect (pepsin content of gastric juice) [6]: greater antipepsin effect; reduction of free hydrochloric acid levels in gastric juice [6]: reduced the free hydrochloric acid levels more rapidly and had a longer duration of action than aluminium hydroxide gel; buffering capacity ([8]; U.S.P. simulated gastric juice): highest buffering capacity; velocity of neutralisation ([8]; pH after 1 minute in the optimal zone, pH 3-5): high velocity of neutralisation; ability to absorb acid in the presence of pepsin ([8]; simulated gastric juice with pepsin versus without): increased ability to absorb acid in the presence of pepsin
Magaldrate U.S.P. [F2] | – | – | – | – | 2.40 | 2.65 | 1.95 | 1.70 | 1.40 | 1.92 | –
dry aluminium hydroxide gel U.S.P. [F1] | – | – | – | – | 4.80 | 2.79 | 2.93 | 7.40 | 3.30 | 17.43 | –
[OH][Al]([OH])[OH] [aluminium hydroxide, reference compound] | without effect on the pepsin activity | much less influence on pH | 12% | 32% | – | – | – | – | – | – | reduction in ulceration ([2]; 125 mg/kg): 43%

From patent publication US4560545A, “Basic aluminum magnesium carbonate” (Anphar S.A., priority 1978, dated 1985)
